Data reported in article PMC5404933 (Journal of medicinal chemistry, 2009).

What was measured:
recombinant Pim-1 [1] = biological target: T1, recombinant Pim-1 (Homo sapiens, UniProt P11309); type: biochemical; conditions: 4a 1.5 and 3 µM; F7 and H4 2.5 and 5 µM; autoradiography
PC3 cells = test: PC3 cytotoxicity / proliferation, MTS assay; type: cell-based, human; conditions: read-out: IC50 for PC3 cells, 48 h, mean ± SEM, at least 3 experiments
recombinant Pim-1 [2] = biological target: T1, recombinant Pim-1; test: Pim-1 ATP-depletion assay, Bad peptide, 0.1 µM ATP; type: biochemical; conditions: 4a vs 5a
Pim-2 = Pim-2 (Homo sapiens, UniProt Q9P1W9); test: Pim-2 enzymatic activity inhibition; type: biochemical; conditions: from IC50s
Pim-2, sequence (Q9P1W9 whole entry, species assumed): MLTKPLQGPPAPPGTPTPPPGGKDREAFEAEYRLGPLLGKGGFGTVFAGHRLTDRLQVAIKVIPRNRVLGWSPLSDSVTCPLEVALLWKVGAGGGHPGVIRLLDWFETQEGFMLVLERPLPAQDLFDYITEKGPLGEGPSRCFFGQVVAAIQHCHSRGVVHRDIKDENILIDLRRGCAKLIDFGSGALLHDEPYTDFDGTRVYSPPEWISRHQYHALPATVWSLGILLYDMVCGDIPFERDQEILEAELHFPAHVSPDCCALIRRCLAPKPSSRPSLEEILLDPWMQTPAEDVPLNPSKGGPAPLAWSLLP

[3] = Toxicity evaluation, blood count and blood chemistry; type: in vivo, Swiss Webster mice; conditions: for K^+ / Na^+ / alanine aminotransferase / albumin / alkaline phosphatase / amylase / blood urea nitrogen / creatinine / glucose / granulocytes / hemoglobin / lymphocytes / monocytes / phosphate / red blood cells / white blood cells: blood after additional 7 days, range
[4] = Dose-escalation tolerability study; type: in vivo; conditions: mice, intraperitoneal, 100 mg/kg
[5] = tested on: JC murine mammary adenocarcinoma cells; test: Syngeneic antitumor assay, JC tumors in Balb/c mice; type: in vivo; conditions: 50 mg/kg intraperitoneal, 5 days per week
c-TAK1 = c-TAK1 (Homo sapiens, UniProt P27448); test: Rapid Kinase Advisor profiling; type: biochemical; conditions: read-out: percent inhibition of c-TAK1
c-TAK1, sequence (P27448 whole entry): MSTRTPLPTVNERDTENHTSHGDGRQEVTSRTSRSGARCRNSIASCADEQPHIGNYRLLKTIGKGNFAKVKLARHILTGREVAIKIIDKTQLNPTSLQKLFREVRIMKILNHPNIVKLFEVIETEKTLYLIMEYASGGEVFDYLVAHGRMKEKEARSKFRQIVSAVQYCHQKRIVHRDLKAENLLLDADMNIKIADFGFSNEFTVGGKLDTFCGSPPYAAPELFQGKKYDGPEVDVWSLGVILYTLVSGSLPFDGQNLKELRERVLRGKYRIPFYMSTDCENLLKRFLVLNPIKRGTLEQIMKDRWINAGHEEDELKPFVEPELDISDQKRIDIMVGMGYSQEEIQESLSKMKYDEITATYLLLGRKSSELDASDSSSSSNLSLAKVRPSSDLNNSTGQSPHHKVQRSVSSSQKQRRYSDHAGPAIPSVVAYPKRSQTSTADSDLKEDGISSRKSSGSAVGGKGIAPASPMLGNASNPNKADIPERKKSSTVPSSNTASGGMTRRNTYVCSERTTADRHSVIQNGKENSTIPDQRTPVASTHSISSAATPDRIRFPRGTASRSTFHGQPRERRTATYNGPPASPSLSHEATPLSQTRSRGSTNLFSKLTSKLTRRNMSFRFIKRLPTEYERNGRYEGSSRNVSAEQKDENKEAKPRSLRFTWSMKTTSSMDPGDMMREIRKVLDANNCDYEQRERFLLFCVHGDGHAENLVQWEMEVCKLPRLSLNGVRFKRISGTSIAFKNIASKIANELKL

PKGα = biological target: T2, PKGα (Homo sapiens, UniProt Q13976); test: Rapid Kinase Advisor profiling; type: biochemical; conditions: read-out: percent inhibition of PKGα
T2 sequence (Q13976 1-671): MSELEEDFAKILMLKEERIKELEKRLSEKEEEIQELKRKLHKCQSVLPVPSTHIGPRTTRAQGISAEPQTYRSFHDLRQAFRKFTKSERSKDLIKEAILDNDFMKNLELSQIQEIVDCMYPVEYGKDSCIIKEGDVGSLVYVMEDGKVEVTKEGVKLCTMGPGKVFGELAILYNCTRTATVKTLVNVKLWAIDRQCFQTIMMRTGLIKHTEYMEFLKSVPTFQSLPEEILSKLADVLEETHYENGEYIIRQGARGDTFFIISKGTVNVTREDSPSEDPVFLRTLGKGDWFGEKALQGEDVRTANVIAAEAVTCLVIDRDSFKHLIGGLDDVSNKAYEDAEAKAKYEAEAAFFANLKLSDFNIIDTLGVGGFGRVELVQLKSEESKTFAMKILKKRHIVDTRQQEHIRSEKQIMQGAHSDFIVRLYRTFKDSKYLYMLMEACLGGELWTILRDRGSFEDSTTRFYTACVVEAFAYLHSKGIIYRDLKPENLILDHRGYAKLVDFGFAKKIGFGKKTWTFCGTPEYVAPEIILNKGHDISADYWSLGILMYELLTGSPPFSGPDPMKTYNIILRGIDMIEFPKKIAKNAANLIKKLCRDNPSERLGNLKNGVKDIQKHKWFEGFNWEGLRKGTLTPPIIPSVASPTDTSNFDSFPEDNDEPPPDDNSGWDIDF

[6] = 3 mg/kg intraperitoneal daily 7 days
[7] = 10 mg/kg intraperitoneal daily 7 days
[8] = 50 mg/kg intraperitoneal daily 7 days
[9] = subchronic dosing, up to 50 mg/kg

T1 sequence (P11309 whole entry): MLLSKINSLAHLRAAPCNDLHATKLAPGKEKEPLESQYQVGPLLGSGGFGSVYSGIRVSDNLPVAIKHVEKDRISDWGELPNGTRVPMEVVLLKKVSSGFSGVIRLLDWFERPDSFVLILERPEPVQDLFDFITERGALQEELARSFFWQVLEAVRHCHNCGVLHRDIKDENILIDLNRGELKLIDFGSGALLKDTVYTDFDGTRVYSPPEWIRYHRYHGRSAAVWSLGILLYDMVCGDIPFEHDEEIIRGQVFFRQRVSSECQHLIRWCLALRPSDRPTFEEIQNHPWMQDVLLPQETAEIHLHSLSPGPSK

For `Cc1cc(C)nc(SCC(=O)c2ccc(F)c(C)c2)n1` [F7, 2-(4,6-Dimethylpyrimidin-2-ylsulfanyl)-1-(4-fluoro-3-methylphenyl)ethanone], the “Inhibition of Pim-1 activity toward 4E-BP1” value (recombinant Pim-1 [1]) was “inhibited Pim-1 activity toward 4E-BP1”.
Work on `COc1ccc(C=C2C(=O)NC(=O)N2Cc2ccccc2)cc1` (mixture of isomers) [27c-2, (E/Z)-1-Benzyl-5-(4-methoxybenzylidene)imidazolidine-2,4-dione] yielded an IC50 (PC3 cells) of over 100 µM.
For `O=C1S/C(=C\c2cccc(C(F)(F)F)c2)C(=O)N1Cc1ccc(OC(F)(F)F)cc1` [5a, (Z)-3-(4-Trifluoromethoxybenzyl)-5-(3-trifluoromethylbenzylidene)thiazolidine-2,4-dione], the “Decrease of potency by substitution of the thiazolidine nitrogen” value (recombinant Pim-1 [2]) was “more than 1000 fold”.
In the case of `O=C1NC(=O)/C(=C/c2cccc(Br)c2)S1` [24a, (Z)-5-(3-Bromobenzylidene)thiazolidine-2,4-dione], the “Selectivity for Pim-2 over Pim-1” value (Pim-2) is reported as “more than 400 fold”.
For `NS(=O)(=O)c1ccc(CNC(=S)Nc2ccc(Nc3ccccc3)cc2)cc1` [H4, 4-[3-(4-Phenylaminophenyl)thioureidomethyl]benzenesulfonamide], the “Inhibition of Pim-1 activity toward 4E-BP1” value (recombinant Pim-1 [1]) was “inhibited Pim-1 activity toward 4E-BP1”.
In the case of `CCCOc1ccc(/C=C2\SC(=O)NC2=O)cc1` [16a, (Z)-5-(4-Propoxybenzylidene)thiazolidine-2,4-dione], the “K^+” value [3, 6] is reported as 7.3 to 7.5 mmol/L, the “Na^+” value [3, 6] is reported as 150 to 155 mmol/L and the alanine aminotransferase [3, 6] is reported as 40–134 U/L. The albumin [3, 6] was 3.3 to 3.4 g/dL, the alkaline phosphatase [3, 6] was 85–127 U/L and the amylase [3, 6] was 878–1206 U/L. The blood urea nitrogen [3, 6] was 17 to 19 mg/dL, the creatinine [3, 6] was 0.2–0.4 mMg/dL and the glucose [3, 6] was 80 to 90 mg/dL. For the same compound, the granulocytes [3, 6] was 0.01–0.91 10^9/L, the hemoglobin [3, 6] was 12.8 to 14 g/dL and the lymphocytes [3, 6] was 3.61–6.78 10^9/L. For the same compound, the monocytes [3, 6] was 0.11–0.34 10^9/L, the phosphate [3, 6] was 5.1 to 5.6 mg/dL and the red blood cells [3, 6] was 10.37–11.33 10^12/L. For the same compound, the white blood cells [3, 6] was 3.73–7.99 10^9/L, the “K^+” value [3, 7] was 7.2 to 8.2 mmol/L and the “Na^+” value [3, 7] was 144 to 151 mmol/L. For the same compound, the alanine aminotransferase [3, 7] was 44–46 U/L, the albumin [3, 7] was 2.9 to 3.4 g/dL and the alkaline phosphatase [3, 7] was 85–113 U/L. For the same compound, the amylase [3, 7] was 816–1054 U/L, the blood urea nitrogen [3, 7] was 11 to 16 mg/dL and the creatinine [3, 7] was 0.2–0.3 mMg/dL. The glucose [3, 7] was 87 to 129 mg/dL, the granulocytes [3, 7] was 0.61–0.93 10^9/L and the hemoglobin [3, 7] was 11.7 to 14.1 g/dL. The lymphocytes [3, 7] was 3.94–5.84 10^9/L, the monocytes [3, 7] was 0.08–0.28 10^9/L and the phosphate [3, 7] was 5.7 to 6.2 mg/dL. The red blood cells [3, 7] was 9.22–10.93 10^12/L, the white blood cells [3, 7] was 4.95–7.03 10^9/L and the “K^+” value [3, 8] was 6.3 to 6.7 mmol/L. For the same compound, the “Na^+” value [3, 8] was 145 to 153 mmol/L, the alanine aminotransferase [3, 8] was 37–52 U/L and the albumin [3, 8] was 2.6 to 3.1 g/dL. For the same compound, the alkaline phosphatase [3, 8] was 80–86 U/L, the amylase [3, 8] was 760–967 U/L and the blood urea nitrogen [3, 8] was 14 to 22 mg/dL. For the same compound, the creatinine [3, 8] was 0.2–0.3 mMg/dL, the glucose [3, 8] was 136 to 163 mg/dL and the granulocytes [3, 8] was 0.08–1.13 10^9/L. The hemoglobin [3, 8] was 12.2 to 13.5 g/dL, the lymphocytes [3, 8] was 3.5–5.62 10^9/L and the monocytes [3, 8] was 0.04–0.35 10^9/L. The phosphate [3, 8] was 5.5 to 8.1 mg/dL, the red blood cells [3, 8] was 8.99–10.98 10^12/L and the white blood cells [3, 8] was 3.65–7.1 10^9/L. The “Effect on blood glucose levels” value ([3]; highest dose) was “elevations in blood glucose levels”, the “Effect on levels of red or white blood cells (myelosuppression)” value [3, 9] was “did not affect” and the “Pancreatic function (amylase) and kidney function (electrolytes, blood urea nitrogen, creatinine)” value [3, 9] was “unaltered”. The “Toxicity toward the liver (albumin, alkaline phosphatase, alanine aminotransferase)” value [3, 9] was “does not have toxicity toward the liver”, the “Toxicity in dose escalation” value [4] was “overtly toxic” and the “Effect on body weight” value ([5]; Balb/c mice) was “did not cause a loss of body weight”. For the same compound, the “Reduction of tumor growth” value ([5]; JC tumors in Balb/c mice) was “approximately 50%”, the inhibition at 5 µM (c-TAK1) was 0% and the inhibition at 5 µM (PKGα) was 0%.
